The values that follow come from ChEMBL document CHEMBL5678818, “Discovery of potent SOS1 inhibitors that block RAS activation via disruption of the RAS-SOS1 interaction” (Proc Natl Acad Sci U S A, 2019).

For assay [1], the target named is T1, Ephrin type-A receptor 1 (Homo sapiens) (UniProt P21709).
T1 sequence (whole entry): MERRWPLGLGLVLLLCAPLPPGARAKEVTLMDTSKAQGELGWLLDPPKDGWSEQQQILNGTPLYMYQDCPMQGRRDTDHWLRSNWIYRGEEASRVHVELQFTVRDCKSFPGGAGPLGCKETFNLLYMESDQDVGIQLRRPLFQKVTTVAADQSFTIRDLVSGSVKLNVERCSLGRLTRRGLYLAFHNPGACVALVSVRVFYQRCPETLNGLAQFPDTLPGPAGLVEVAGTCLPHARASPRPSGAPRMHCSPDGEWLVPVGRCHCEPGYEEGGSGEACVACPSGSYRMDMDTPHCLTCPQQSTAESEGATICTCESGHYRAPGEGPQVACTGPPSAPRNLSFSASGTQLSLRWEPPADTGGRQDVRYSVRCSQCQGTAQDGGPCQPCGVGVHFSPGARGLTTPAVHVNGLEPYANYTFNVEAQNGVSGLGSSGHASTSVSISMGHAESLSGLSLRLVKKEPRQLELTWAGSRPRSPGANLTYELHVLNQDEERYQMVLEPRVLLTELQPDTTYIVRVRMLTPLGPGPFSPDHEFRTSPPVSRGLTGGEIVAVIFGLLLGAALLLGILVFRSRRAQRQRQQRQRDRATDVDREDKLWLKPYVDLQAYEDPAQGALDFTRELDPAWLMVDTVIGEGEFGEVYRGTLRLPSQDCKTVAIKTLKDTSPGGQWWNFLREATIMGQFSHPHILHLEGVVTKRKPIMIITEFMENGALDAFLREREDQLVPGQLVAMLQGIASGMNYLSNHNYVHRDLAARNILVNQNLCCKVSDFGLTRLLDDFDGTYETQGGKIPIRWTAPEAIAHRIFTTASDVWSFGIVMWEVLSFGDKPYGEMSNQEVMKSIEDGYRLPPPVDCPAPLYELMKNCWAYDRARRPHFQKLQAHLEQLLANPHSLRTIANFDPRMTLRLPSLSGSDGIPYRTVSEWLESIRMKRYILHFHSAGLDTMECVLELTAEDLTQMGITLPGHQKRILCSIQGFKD
As to the kind of experiment: Inhibition of EPHA1 (unknown origin) assessed as residual activity at 100 nM by KINOMEscan analysis relative to control.

In assay [2] the target is 5'-AMP-activated protein kinase catalytic subunit alpha-2 (Homo sapiens) (UniProt P54646). The assay is described as follows: Inhibition of AMPK-alpha2 (unknown origin) assessed as residual activity at 100 nM by KINOMEscan analysis relative to control.
Assay [3] deals with Bone morphogenetic protein receptor type-1A (Homo sapiens) (UniProt P36894). As to the kind of experiment: Inhibition of BMPR1A (unknown origin) assessed as residual activity at 100 nM by KINOMEscan analysis relative to control.
Bone morphogenetic protein receptor type-1A (Homo sapiens), sequence (P36894 whole entry): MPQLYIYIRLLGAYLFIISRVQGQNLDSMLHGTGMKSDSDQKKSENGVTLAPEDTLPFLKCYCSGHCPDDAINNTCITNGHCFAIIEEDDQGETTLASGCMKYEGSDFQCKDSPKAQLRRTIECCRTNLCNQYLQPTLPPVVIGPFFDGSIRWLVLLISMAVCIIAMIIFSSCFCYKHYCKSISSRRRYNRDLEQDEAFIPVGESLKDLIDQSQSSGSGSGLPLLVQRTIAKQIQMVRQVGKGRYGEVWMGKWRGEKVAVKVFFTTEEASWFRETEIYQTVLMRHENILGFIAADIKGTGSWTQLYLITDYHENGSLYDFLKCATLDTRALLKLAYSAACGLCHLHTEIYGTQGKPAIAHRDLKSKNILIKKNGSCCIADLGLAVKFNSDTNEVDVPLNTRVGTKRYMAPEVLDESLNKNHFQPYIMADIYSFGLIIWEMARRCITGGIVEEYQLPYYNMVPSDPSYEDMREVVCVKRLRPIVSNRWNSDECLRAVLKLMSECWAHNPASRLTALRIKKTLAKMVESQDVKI
The target of assay [4] is Mitogen-activated protein kinase 3 (Homo sapiens) (UniProt P27361). The assay is described as follows: Inhibition of ERK1 (unknown origin) assessed as residual activity at 100 nM by KINOMEscan analysis relative to control.
Mitogen-activated protein kinase 3 (Homo sapiens), sequence (P27361 whole entry, the tested form may be a part): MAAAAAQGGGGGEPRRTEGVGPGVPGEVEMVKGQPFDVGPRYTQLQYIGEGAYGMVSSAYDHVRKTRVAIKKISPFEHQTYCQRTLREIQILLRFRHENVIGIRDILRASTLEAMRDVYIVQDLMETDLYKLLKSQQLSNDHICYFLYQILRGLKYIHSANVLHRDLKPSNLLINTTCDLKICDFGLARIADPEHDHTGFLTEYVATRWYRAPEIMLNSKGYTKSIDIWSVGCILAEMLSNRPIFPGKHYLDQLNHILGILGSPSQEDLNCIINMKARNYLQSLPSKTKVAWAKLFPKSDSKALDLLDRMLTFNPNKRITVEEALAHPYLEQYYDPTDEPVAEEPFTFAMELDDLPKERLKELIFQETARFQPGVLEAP
The target in assay [5] is Phosphatidylinositol 4-phosphate 3-kinase C2 domain-containing subunit beta (Homo sapiens) (UniProt O00750). The assay is described as follows: Inhibition of PIK3C2B (unknown origin) assessed as residual activity at 100 nM by KINOMEscan analysis relative to control.
Phosphatidylinositol 4-phosphate 3-kinase C2 domain-containing subunit beta (Homo sapiens), sequence (O00750 whole entry, the tested form may be a part): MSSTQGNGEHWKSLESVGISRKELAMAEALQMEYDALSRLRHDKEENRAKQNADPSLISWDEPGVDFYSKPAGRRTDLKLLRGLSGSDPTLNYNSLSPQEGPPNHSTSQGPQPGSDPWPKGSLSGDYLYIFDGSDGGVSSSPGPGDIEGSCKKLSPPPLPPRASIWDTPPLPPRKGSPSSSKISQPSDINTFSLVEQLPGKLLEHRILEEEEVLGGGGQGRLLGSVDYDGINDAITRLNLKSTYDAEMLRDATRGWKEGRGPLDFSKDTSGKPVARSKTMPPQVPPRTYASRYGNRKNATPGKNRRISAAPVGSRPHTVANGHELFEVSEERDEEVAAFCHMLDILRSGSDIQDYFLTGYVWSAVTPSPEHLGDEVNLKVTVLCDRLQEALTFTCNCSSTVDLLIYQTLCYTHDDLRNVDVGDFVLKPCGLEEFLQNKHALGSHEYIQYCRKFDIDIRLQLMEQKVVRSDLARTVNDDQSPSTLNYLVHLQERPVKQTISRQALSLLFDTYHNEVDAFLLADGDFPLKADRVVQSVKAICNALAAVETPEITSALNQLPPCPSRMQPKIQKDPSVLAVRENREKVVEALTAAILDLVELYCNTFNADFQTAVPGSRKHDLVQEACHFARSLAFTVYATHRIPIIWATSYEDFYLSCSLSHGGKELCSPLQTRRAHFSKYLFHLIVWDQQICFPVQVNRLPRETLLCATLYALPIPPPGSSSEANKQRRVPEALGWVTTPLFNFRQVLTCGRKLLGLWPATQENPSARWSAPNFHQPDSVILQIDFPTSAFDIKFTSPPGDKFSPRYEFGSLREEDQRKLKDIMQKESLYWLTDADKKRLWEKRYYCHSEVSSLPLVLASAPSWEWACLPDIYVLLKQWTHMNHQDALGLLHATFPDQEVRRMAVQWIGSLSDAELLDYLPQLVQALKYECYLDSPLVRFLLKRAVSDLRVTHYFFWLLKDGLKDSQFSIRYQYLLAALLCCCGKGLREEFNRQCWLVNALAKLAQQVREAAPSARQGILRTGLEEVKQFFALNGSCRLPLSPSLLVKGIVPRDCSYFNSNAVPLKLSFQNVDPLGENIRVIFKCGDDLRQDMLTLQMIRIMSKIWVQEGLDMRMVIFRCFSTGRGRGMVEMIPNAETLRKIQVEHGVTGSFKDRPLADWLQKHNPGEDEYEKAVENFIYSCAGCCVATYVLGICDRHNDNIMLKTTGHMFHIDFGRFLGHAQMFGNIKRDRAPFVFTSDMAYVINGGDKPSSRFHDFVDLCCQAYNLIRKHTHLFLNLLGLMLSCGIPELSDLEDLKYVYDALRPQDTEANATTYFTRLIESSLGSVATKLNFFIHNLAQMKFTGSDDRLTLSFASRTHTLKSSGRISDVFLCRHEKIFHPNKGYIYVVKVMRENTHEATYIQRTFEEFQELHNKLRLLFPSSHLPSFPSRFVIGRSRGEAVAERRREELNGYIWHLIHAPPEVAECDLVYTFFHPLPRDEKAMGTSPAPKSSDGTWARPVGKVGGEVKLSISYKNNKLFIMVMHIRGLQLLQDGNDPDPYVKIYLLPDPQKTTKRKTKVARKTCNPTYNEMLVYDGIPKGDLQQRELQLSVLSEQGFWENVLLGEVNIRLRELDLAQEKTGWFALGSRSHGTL
Assay [6] addresses Mitogen-activated protein kinase 6 (Homo sapiens) (UniProt Q16659). As to the kind of experiment: Inhibition of ERK3 (unknown origin) assessed as residual activity at 100 nM by KINOMEscan analysis relative to control.
For assay [7], the system named is Mast/stem cell growth factor receptor Kit (Homo sapiens), P10721 [D816H]. The assay is described as follows: Inhibition of KIT D816H mutant (unknown origin) assessed as residual activity at 100 nM by KINOMEscan analysis relative to control.
Mast/stem cell growth factor receptor Kit (Homo sapiens), P10721 [D816H], sequence (P10721 whole entry D816H): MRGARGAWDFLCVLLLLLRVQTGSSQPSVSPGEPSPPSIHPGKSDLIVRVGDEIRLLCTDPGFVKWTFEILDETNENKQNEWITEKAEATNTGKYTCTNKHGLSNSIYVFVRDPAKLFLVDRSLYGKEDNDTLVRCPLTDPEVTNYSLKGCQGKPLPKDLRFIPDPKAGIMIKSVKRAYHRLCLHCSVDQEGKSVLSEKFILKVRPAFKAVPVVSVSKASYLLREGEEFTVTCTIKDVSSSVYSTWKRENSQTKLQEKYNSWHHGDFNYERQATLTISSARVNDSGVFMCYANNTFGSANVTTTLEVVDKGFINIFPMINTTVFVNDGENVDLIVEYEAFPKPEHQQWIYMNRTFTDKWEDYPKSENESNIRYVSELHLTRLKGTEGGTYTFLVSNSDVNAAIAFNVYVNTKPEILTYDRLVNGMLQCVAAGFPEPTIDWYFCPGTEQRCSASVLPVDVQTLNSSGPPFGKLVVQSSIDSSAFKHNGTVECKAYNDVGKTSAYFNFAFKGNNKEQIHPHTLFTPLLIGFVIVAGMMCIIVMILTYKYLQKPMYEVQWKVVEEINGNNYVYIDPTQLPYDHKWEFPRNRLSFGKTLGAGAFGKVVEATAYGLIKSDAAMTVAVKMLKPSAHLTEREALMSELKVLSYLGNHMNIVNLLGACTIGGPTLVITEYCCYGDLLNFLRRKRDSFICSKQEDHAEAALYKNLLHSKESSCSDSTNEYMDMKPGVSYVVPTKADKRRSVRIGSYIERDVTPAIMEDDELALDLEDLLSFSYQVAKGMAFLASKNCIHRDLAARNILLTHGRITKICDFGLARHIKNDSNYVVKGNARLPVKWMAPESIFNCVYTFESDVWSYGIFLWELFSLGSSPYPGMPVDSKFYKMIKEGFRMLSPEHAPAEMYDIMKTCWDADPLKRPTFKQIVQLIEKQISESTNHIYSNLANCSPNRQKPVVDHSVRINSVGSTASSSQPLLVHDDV
Assay [8] has as its target T2, Ephrin type-B receptor 6 (Homo sapiens) (UniProt O15197).
T2 sequence (whole entry): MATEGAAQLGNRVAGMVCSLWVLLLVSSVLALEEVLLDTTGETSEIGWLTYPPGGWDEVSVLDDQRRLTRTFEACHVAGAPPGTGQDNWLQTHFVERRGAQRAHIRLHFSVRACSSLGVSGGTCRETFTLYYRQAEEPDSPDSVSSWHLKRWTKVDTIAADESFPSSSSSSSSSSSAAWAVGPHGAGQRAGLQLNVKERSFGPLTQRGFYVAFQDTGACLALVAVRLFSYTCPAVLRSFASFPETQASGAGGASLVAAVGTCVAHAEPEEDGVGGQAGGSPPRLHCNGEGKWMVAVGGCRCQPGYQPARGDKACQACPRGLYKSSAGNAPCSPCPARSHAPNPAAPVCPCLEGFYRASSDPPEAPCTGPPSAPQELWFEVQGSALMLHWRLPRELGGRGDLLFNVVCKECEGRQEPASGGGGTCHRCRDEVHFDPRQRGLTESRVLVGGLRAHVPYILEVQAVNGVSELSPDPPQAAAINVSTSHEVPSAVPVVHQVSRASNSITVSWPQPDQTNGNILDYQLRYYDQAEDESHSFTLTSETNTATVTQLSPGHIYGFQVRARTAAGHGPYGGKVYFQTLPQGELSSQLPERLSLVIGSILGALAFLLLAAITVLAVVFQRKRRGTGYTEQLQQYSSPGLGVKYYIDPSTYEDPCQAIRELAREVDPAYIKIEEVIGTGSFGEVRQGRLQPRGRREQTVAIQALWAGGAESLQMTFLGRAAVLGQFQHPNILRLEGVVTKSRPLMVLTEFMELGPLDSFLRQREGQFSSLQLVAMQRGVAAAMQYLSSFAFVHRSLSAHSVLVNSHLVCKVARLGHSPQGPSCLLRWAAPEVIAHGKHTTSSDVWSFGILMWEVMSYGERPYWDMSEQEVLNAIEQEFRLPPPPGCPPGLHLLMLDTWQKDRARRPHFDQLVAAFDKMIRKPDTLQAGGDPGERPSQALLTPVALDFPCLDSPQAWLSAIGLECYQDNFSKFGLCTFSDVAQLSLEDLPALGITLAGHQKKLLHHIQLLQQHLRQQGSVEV
As to the kind of experiment: Inhibition of EPHB6 (unknown origin) assessed as residual activity at 100 nM by KINOMEscan analysis relative to control.

The target in assay [9] is Casein kinase II subunit alpha (Homo sapiens) (UniProt P68400). The assay is described as follows: Inhibition of CSNK2A1 (unknown origin) assessed as residual activity at 100 nM by KINOMEscan analysis relative to control.
In assay [10] the target is Mitogen-activated protein kinase 7 (Homo sapiens) (UniProt Q13164). The assay is described as follows: Inhibition of ERK5 (unknown origin) assessed as residual activity at 100 nM by KINOMEscan analysis relative to control.
Mitogen-activated protein kinase 7 (Homo sapiens), sequence (Q13164 2-816 limits assumed): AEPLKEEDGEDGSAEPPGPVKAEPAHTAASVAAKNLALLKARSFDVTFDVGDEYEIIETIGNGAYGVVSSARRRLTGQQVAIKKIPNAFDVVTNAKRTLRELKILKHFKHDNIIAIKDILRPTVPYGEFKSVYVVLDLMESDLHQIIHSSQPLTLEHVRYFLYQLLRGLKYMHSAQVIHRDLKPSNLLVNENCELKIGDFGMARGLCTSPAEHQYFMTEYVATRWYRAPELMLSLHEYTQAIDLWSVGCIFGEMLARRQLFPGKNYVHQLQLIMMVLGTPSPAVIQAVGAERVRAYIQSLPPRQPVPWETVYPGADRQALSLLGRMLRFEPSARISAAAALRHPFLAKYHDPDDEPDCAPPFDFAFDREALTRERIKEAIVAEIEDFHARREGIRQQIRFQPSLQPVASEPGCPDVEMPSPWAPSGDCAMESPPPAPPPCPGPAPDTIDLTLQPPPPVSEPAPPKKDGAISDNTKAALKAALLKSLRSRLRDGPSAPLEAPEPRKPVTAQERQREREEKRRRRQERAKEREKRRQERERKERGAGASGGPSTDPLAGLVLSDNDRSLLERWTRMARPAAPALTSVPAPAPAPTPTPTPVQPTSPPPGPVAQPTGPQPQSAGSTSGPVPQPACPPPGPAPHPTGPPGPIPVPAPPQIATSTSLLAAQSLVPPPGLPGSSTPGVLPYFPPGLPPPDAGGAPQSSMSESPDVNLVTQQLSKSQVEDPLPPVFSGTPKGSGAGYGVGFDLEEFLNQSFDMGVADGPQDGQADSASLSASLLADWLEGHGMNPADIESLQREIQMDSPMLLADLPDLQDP

Mitogen-activated protein kinase 6 (Homo sapiens), sequence (Q16659 whole entry): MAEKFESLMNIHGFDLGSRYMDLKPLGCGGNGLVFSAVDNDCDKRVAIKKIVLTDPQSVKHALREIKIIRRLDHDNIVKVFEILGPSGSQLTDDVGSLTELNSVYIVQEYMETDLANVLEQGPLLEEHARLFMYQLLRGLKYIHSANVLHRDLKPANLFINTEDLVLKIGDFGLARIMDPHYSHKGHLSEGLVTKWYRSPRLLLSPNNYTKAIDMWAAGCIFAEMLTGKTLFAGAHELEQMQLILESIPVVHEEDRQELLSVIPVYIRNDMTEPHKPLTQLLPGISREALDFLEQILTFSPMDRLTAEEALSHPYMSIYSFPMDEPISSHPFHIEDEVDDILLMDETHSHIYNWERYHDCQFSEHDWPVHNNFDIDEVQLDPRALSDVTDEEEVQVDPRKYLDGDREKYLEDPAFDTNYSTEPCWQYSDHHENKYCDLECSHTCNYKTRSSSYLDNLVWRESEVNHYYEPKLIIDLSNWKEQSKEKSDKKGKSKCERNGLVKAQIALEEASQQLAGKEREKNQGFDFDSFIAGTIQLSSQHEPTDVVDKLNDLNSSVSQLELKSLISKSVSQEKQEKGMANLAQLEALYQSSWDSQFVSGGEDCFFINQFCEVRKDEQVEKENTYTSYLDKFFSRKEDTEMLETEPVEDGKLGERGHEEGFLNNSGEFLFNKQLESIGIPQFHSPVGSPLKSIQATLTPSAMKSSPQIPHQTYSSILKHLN

Regarding `COc1cc2ncnc(N[C@H](C)c3cccc4ccccc34)c2cc1OC`, the Activity in assay [1] was 75%; in [2] it was 52%; in assay [3], 71%; in [4], 91%; in assay [5], 81%; in assay [6], 40%. For the same molecule, the Activity in assay [7] is 89%; in assay [8], 77%; in assay [9] it was 96%; in assay [10] it was 84%.
